Laboratory results taken from patent US11420969B2 (Exonate Limited, priority 2017, dated 2022).

What was measured:
CYP2C9 = molecular target: T1, CYP2C9 (Homo sapiens, UniProt P11712); experiment: CYP inhibition assay, human liver microsomes, substrate diclofenac; assay type: in vitro ADME; conditions: human liver microsomes, 10 min incubation, LC-MS/MS; read-out: CYP Inhibition Activity (IC50/nM) CYP2C9
T1 construct: from tissue; host or cells: human liver microsomes
Summary of the method: (§1)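 Inhibition was determined with all substrates combined as a cocktail, a 20 min compound pre-incubation and a 10 min NADPH reaction at 37 °C. IC50 was calculated from LC-MS/MS data.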

CYP3A4 = molecular target: T2, CYP3A4 (Homo sapiens, UniProt P08684); experiment: CYP inhibition assay, human liver microsomes, substrate midazolam; assay type: in vitro ADME; conditions: human liver microsomes, 10 min incubation, LC-MS/MS; read-out: CYP Inhibition Activity (IC50/nM) CYP3A4
T2 construct: from tissue; host or cells: human liver microsomes
Summary of the method: as §1

[1] = tested on: laser-induced choroidal neovascularisation (CNV) lesions; experiment: In vivo angiogenesis assay: laser-induced choroidal neovascularisation (CNV); set-up: species or system C57/B6 mice; conditions: laser-induced mouse model of CNV; topical eye drops twice daily, 2 mg/mL, 10 μl; one week; FIG. 1(a)
Experimental: In Vivo Angiogenesis Assay: Laser-Induced Choroidal Neovascularisation (CNV) Protocol
6-8 week-old female C57/B6 mice were anesthetized with an intraperitoneal injection of a mixture of 50 mg/kg ketamine and 0.5 mg/kg medetomidine. The pupils were immediately dilated by topical (eyedrop) application with a dilator such as 5% phenylephrine hydrochloride and 1% tropicamide. Four photocoagulation lesions were delivered with a green Merilas 532α laser (450 mW, 130 ms) between the “large” retinal vessels in clear space with no vessels in a peripapillary distribution at a distance of 1-2 disc-diameters in each eye. Only clean laser lesions with a subretinal bubble at the time of treatment were included in the study. Immediately following laser photocoagulation the animals were given topical eye drops of candidate compounds twice daily (2 mg/mL, 10 μl, eyes held for 30 seconds to prevent animal wiping drop away).
After one week, mice were anesthetized with an intraperitoneal injection of a mixture of 50 mg/kg ketamine and 0.5 mg/kg medetomidine. The pupils were immediately dilated by topical (eyedrop) application with a dilator such as 5% phenylephrine hydrochloride and 1% tropicamide. Mice were administered an intraperitoneal injection of sodium fluorescein (10%). […]
The optical density of each well was measured immediately, using a microplate reader set to 450 nm.

CYP2C19 = molecular target: T3, CYP2C19 (Homo sapiens, UniProt P33261); experiment: CYP inhibition assay, human liver microsomes, substrate S-mephenytoin; assay type: in vitro ADME; conditions: human liver microsomes, 10 min incubation, LC-MS/MS; read-out: CYP Inhibition Activity (IC50/nM) CYP2C19
T3 construct: from tissue; host or cells: human liver microsomes
Summary of the method: as §1

CYP2D6 = molecular target: T4, CYP2D6 (Homo sapiens, UniProt P10635); experiment: biochemical; assay type: in vitro ADME
T4 construct: from tissue; host or cells: human liver microsomes
Summary of the method: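 Human liver microsomes (0.253 mg/mL working stock) pre-incubated with compound and substrate pool at 37° C for 20 min. Reaction started with NADPH and run 10 min at 37° C, stopped with cold ACN. Metabolite analysed by LC-MS/MS; % inhibition and IC50 calculated versus inhibitor-free control.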

SRPK1 = SRPK1 (Homo sapiens, UniProt Q96SB4); experiment: In vitro SRPK1 assay (Kinase-Glo); assay type: biochemical
CYP1A2 = molecular target: T5, CYP1A2 (Homo sapiens, UniProt P05177); experiment: CYP inhibition assay, human liver microsomes, substrate tacrine; assay type: in vitro ADME; conditions: human liver microsomes, 10 min incubation, LC-MS/MS; read-out: CYP Inhibition Activity (IC50/nM) CYP1A2
T5 construct: from tissue; host or cells: human liver microsomes
T5 sequence (P05177 1-516): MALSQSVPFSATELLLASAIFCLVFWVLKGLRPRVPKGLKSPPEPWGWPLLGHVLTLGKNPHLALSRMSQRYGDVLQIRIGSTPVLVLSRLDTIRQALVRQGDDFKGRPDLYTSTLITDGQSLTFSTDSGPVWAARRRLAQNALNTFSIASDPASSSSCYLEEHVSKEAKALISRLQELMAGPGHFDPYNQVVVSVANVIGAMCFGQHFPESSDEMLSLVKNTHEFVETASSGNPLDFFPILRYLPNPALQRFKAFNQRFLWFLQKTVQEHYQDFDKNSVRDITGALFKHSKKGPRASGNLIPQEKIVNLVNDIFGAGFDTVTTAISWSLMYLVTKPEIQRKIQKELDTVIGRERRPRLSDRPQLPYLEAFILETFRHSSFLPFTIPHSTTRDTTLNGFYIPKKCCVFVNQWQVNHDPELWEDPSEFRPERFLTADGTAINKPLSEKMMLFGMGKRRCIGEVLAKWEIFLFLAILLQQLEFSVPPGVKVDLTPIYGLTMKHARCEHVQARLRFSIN
Summary of the method: as §1

Chain of SRPK1 (Q96SB4 whole entry, species assumed): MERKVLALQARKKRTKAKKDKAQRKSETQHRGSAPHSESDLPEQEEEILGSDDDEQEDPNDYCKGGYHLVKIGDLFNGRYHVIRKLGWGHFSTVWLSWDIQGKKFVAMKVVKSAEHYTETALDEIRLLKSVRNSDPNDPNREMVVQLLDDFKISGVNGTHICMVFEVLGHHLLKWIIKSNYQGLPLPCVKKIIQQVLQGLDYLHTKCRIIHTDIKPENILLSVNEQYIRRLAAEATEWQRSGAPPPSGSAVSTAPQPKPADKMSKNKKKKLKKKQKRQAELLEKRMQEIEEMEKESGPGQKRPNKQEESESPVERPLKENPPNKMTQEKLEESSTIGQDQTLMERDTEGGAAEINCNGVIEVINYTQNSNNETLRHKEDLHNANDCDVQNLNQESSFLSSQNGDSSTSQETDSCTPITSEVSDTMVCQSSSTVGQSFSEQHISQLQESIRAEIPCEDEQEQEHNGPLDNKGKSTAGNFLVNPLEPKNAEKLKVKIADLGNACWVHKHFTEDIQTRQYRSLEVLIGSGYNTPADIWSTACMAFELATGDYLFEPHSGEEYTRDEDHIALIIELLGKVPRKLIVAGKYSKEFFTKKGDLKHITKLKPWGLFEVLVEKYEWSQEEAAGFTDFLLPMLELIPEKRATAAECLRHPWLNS
T2 sequence (P08684 whole entry): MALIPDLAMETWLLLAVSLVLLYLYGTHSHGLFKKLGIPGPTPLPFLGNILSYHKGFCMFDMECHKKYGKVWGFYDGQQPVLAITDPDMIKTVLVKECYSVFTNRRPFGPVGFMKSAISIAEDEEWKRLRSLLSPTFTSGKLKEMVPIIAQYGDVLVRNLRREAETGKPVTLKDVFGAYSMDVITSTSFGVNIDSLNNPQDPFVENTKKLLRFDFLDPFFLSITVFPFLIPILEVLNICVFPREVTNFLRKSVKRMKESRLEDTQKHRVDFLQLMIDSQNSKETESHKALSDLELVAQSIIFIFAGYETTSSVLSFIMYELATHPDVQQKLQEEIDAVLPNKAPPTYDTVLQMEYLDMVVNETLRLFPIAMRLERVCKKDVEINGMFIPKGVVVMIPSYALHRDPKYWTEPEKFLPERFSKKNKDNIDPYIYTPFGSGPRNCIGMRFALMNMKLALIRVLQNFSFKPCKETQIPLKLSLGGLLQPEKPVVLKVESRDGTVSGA
T4 sequence (P10635 whole entry): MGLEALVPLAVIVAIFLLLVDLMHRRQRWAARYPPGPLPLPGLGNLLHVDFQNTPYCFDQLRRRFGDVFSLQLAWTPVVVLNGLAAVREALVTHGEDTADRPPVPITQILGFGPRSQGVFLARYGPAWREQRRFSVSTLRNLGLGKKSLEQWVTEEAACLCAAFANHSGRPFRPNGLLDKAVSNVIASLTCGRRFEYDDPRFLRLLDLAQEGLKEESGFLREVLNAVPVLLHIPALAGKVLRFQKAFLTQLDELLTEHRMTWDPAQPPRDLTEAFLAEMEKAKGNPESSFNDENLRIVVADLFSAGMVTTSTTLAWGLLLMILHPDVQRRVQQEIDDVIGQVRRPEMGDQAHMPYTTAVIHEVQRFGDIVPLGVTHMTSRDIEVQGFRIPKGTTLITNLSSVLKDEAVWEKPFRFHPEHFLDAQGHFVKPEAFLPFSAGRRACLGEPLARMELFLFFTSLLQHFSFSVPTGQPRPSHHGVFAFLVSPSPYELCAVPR
T3 sequence (P33261 whole entry): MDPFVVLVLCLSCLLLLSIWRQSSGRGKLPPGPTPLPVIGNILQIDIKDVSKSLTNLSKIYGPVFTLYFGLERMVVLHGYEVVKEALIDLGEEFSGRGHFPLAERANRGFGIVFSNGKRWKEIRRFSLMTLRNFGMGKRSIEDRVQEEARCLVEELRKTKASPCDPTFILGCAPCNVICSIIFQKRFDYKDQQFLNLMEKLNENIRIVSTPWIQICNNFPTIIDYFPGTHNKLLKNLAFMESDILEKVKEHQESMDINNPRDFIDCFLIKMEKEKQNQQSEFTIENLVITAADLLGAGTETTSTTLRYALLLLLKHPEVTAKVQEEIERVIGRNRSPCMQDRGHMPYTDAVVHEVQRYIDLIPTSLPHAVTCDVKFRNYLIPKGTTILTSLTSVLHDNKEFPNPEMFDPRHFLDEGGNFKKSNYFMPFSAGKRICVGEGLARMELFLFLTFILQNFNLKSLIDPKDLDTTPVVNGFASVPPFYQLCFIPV
T1 sequence (P11712 whole entry): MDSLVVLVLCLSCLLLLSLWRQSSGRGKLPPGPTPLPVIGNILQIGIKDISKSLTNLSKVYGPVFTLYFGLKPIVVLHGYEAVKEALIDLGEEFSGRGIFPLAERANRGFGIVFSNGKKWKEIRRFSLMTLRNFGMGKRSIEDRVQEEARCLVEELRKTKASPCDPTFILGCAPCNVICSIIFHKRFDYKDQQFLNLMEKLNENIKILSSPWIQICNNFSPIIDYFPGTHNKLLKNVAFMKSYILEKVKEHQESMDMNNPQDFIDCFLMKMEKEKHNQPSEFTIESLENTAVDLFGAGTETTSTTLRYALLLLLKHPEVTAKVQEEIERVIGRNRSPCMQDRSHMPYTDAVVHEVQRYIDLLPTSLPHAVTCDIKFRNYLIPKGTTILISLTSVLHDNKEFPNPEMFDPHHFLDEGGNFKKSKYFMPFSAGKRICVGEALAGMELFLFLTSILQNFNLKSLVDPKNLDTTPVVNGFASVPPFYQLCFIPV

SMILES | IC50 (CYP2C9) | IC50 (CYP3A4) | IC50 (CYP2C19) | IC50 (CYP2D6) | IC50 (SRPK1) | IC50 (CYP1A2) | anti-angiogenic activity on lesion size [1]
CC1(O)CCN(c2ccc(Cl)cc2NC(=O)c2ccc(C3CCOCC3)o2)CC1 [Example 12] | 6980 nM | 2660 nM | 11800 nM | 23.2 µM | 0.3 nM | 13900 nM | improved anti-angiogenic activity on lesion size and the same efficacy as reference compounds
CN(C)C(=O)C1(C)CCN(c2ccc(C3CC3)cc2NC(=O)c2ccc(C3CCOCC3)o2)CC1 [Example 86, 1-(4-cyclopropyl-2-(5-(tetrahydro-2H-pyran-4-yl)furan-2-carboxamido)phenyl)-N,N,4-trimethyl-piperidine-4-carboxamide] | 200 nM | 1100 nM | 4100 nM | 19.2 µM | 9 nM | > 30000 nM | –
CC1CCN(c2ccc(C(F)(F)F)cc2NC(=O)c2ccc(C3CCOCC3)o2)CC1 [Example 35, N-(2-(4-methylpiperidin-1-yl)-5-(trifluoromethyl)-phenyl)-5-(tetrahydro-2H-pyran-4-yl)furan-2-carboxamide] | > 30000 nM | > 30000 nM | 27800 nM | > 30 µM | 56.1 nM | 4700 nM | –
O=C(Nc1cc(C(F)(F)F)ccc1N1CCCC(O)CC1)c1ccc(-c2ccncc2)o1 (racemic) [Example 44, N-(2-(4-hydroxyazepan-1-yl)-5-(trifluoromethyl)-phenyl)-5-(pyridin-4-yl)furan-2-carboxamide] | 11200 nM | 26300 nM | 8570 nM | 25.3 µM | 1.5 nM | 24300 nM | –
CC1(C)CCN(c2ccc(C(F)(F)F)cc2NC(=O)c2ccc(-c3ccncc3)o2)CC1 [Example 28, N-(2-(4,4-dimethylpiperidin-1-yl)-5-(trifluoromethyl)phenyl)-5-(pyridin-4-yl)furan-2-carboxamide] | > 30000 nM | > 30000 nM | > 30000 nM | > 30 µM | 15 nM | > 30000 nM | –
CC1(O)CCN(c2ccc(C(F)(F)F)cc2NC(=O)c2ccccn2)CC1 [Example 1, N-(2-(4-hydroxy-4-methylpiperidin-1-yl)-5-(trifluoromethyl)phenyl)picolinamide] | 17800 nM | 20900 nM | 16000 nM | > 30 µM | 9 nM | 15300 nM | –
CC1(C(=O)N2CCCC2)CCN(c2ccc(C(F)(F)F)cc2NC(=O)c2ccc(C3CCOCC3)o2)CC1 [Example 88, N-(2-(4-methyl-4-(pyrrolidine-1-carbonyl)-piperidin-1-yl)-5-(trifluoromethyl)-phenyl)-5-(tetrahydro-2H-pyran-4-yl)furan-2-carboxamide] | 300 nM | 1000 nM | 4600 nM | 10.3 µM | 11 nM | > 30000 nM | –
CC1(CO)CCN(c2ccc(C3CC3)cc2NC(=O)c2ccc(C3CCOCC3)o2)CC1 [Example 67, N-(5-cyclopropyl-2-(4-(hydroxymethyl)-4-methylpiperidin-1-yl)phenyl)-5-(tetrahydro-2H-pyran-4-yl)furan-2-carboxamide] | 3300 nM | > 30000 nM | 7900 nM | > 30 µM | 4.1 nM | > 30000 nM | –
CC1(CN2CCCCC2)CCN(c2ccc(C(F)(F)F)cc2NC(=O)c2ccc(C3CCOCC3)o2)CC1 [Example 96, N-(2-(4-methyl-4-(piperidin-1-ylmethyl)piperidin-1-yl)-5-(trifluoromethyl)phenyl)-5-(tetrahydro-2H-pyran-4-yl)furan-2-carboxamide] | 17800 nM | 7700 nM | > 30000 nM | 0.2 µM | 49 nM | > 30000 nM | –
CC1(O)CCCN(c2ccc(C(F)(F)F)cc2NC(=O)c2ccc(C3CCOCC3)o2)CC1 (racemic) [Example 40, N-(2-(4-hydroxy-4-methylazepan-1-yl)-5-(trifluoromethyl)phenyl)-5-(tetrahydro-2H-pyran-4-yl)furan-2-carboxamide] | 8450 nM | 10900 nM | 10400 nM | 26.9 µM | 1.6 nM | > 30000 nM | –
CN1CCC2(CCN(c3ccc(C(F)(F)F)cc3NC(=O)c3ccc(C4CCOCC4)o3)CC2)C1=O [Example 100, N-(2-(2-methyl-1-oxo-2,8-diazaspiro[4.5]decan-8-yl)-5-(trifluoromethyl)phenyl)-5-(tetrahydro-2H-pyran-4-yl)furan-2-carboxamide] | 7300 nM | 2700 nM | 3200 nM | 13.8 µM | 2.6 nM | > 30000 nM | –

More lines, in order of falling IC50 (CYP2C9), values ahead:

IC50 (CYP2C9) | IC50 (CYP3A4) | IC50 (CYP2C19) | IC50 (CYP2D6) | IC50 (SRPK1) | IC50 (CYP1A2) | SMILES | anti-angiogenic activity on lesion size [1]
15000 nM | > 30000 nM | 10500 nM | 23.9 µM | 54 nM | 10500 nM | CC1(O)CCN(c2ccc(C3CC3)cc2NC(=O)c2ccc(C3CCOCC3)o2)C1 (racemic) [Example 59, N-(5-cyclopropyl-2-(3-hydroxy-3-methyl-pyrrolidin-1-yl)phenyl)-5-(tetrahydro-2H-pyran-4-yl)furan-2-carboxamide] | –
11000 nM | > 30000 nM | 12200 nM | 24.8 µM | 1.5 nM | > 30000 nM | O=C(Nc1cc(Cl)ccc1N1CCC(O)CC1)c1ccc(C2CCOCC2)o1 [Example 62, N-(5-chloro-2-(4-hydroxypiperidin-1-yl)phenyl)-5-(tetrahydro-2H-pyran-4-yl)furan-2-carboxamide] | –
10400 nM | > 30000 nM | > 30000 nM | 1.5 µM | 150 nM | > 30000 nM | COc1ccc(N2CCC(C)(CN(C)C)CC2)c(NC(=O)c2ccc(C3CCOCC3)o2)c1 [Example 92, N-(2-(4-((dimethylamino)methyl)-4-methyl-piperidin-1-yl)-5-methoxyphenyl)-5-(tetrahydro-2H-pyran-4-yl)furan-2-carboxamide] | –
1500 nM | 4200 nM | 1100 nM | 2.1 µM | 0.8 nM | 2900 nM | O=C(Nc1cc(C(F)(F)F)ccc1N1CCC(O)CC1)c1ccc(-c2ccncc2)o1 [Example 32, N-(2-(4-hydroxypiperidin-1-yl)-5-(trifluoromethyl)-phenyl)-5-(pyridin-4-yl)furan-2-carboxamide] | –
800 nM | 5900 nM | 14300 nM | > 30 µM | 27 nM | > 30000 nM | Cc1ccc(N2CCC(C)(C(=O)N(C)C)CC2)c(NC(=O)c2ccc(C3CCOCC3)o2)c1 [Example 87, N,N,4-trimethyl-1-(4-methyl-2-(5-(tetrahydro-2H-pyran-4-yl)furan-2-carboxamido)phenyl)piperidine-4-carboxamide] | –
